Measurements: patent publication US20030129193A1 (priority 2001, published 2003)

Assays:
[1] = system: TNFα; settings: cited from earlier work
[2] = system: cancer patients having progressive disease; settings: human, in vivo; cited from earlier work
[3] = system: Mouse endothelial cells; assay: Cell based two stage coagulation assay
Protocol: (§1) Mouse endothelial cells were seeded in 48 well tissue culture plates and allowed to adhere overnight. Cells were stimulated with TNFα at the following concentrations: 500 U/ml; 100 U/ml; 20 U/ml; 4 U/ml; 0.8 U/ml; 0.16 U/ml; and with medium only.
Endothelial cells were also tested for coagulant activity in a cell based two stage coagulation assay. After incubation with TNFα, cells were washed and incubated with coagulation factor mix (0.5 μg/ml factor VIIa in a mix containing 2.8 μg/ml factor IX, 3.4 μg/ml factor X, 50 μM phospholipids, in calcium buffer). The supernatant of wells was transferred into a 96 well ELISA plate. Substrate S2765 was added and Factor Xa generation measured.

[4] = system: tissue factor on HUVEC cells; assay: FACS analysis of tissue factor expression; assay type: cell-based, human; settings: 6 h at 37°; TNFα 500 U/ml, LPS 10 μg/ml, VEGF 1 nM
Protocol: To analyze tissue factor expression on the surface of endothelial cells, HUVEC cells were incubated with TNFα (500 U/ml), LPS (10 μg/ml) or vascular endothelial growth factor (VEGF, 1 nM) alone or in combination for 6 h at 37°. Cells were then detached and stained for surface expression of human tissue factor with a sheep-anti-human tissue factor antibody (Haemochrom, Essen, Germany) and an appropriate FITC-conjugated secondary antibody. Fluorescent cells were detected on a flow cytometer (Becton Dickinson. San Jose, Calif.).

[5] = system: VCAM-1; assay: FACS for upregulation of VCAM-1; assay type: cell-based, mouse
Protocol: as §1
Endothelial cells were then investigated for upregulation of the adhesion molecule VCAM-1 by fluorescence activated cell stain (FACS). To this end, cells were stained with an antibody against murine VCAM-1, followed by an appropriate FITC-conjugated secondary antibody. Fluorescent cells were detected on a flow cytometer (Becton Dickinson. San Jose, Calif.).

[6] = system: L540 Hodgkin tumors; assay: Annexin V inhibition of coaguligand-induced thrombosis in vivo; design: species or system SCID mice
Protocol: The ability of Annexin V to inhibit coaguligand-induced thrombosis in vivo was examined in L540 Hodgkin-bearing SCID mice.
Four hours after the last injection mice were anesthetized and perfused with heparinized saline. Tumors were removed, fixed with 4% formalin, paraffin-embedded and stained with hematoxylene-eosin. The number of thrombosed and non-thrombosed blood vessels were counted and the percentage of thrombosis was calculated.

[7] = system: Factor X on IL-1α-stimulated bEnd.3 cells; assay: Chromogenic assay of coaguligand-induced Factor Xa formation; assay type: cell-based; settings: 10 μg per ml
Protocol: The ability of Annexin V to affect Factor Xa formation induced by coaguligand was determined by a chromogenic assay. […] Annexin V was added at concentrations ranging from 0.1 to 10 μg/ml and cells were incubated for 30 min. before addition of diluted Proplex T. The amount of Factor Xa generated in the presence or absence of Annexin V was determined. Each treatment was performed in duplicate and repeated at least twice.

In the case of `Cc1ccc2c(=O)c3cccc(CC(=O)O)c3oc2c1C` [DMXAA], the “effectiveness in inducing TNFα, less than endotoxin” value [1] is listed as 20 fold.

In the case of `NC(=O)c1nnn(Cc2cc(Cl)c(C(=O)c3ccc(Cl)cc3)c(Cl)c2)c1N` [CAI, carboxyamidotriazole], the “disease stabilization, patients” value [2] is listed as 49%.

For TNFα, the “dose lower than for VCAM-1 upregulation” value [3] was 125 fold, the “TNFα at which an increase versus negative control could be detected” value ([3]; Factor Xa generation) was 0,16 U/ml and the “tissue factor expression on the surface of HUVEC” value [4] was “upregulated tissue factor expression”. For the same molecule, the “TNFα required for a measurable increase of VCAM-1 expression” value [5] was 20 U/ml.

B1: Annexin V: binds to PS with high affinity (protein, UniProt P08758 2-320, looked up)
Annexin A5: AQVLRGTVTDFPGFDERADAETLRKAMKGLGTDEESILTLLTSRSNAQRQEISAAFKTLFGRDLLDDLKSELTGKFEKLIVALMKPSRLYDAYELKHALKGAGTNEKVLTEIIASRTPEELRAIKQVYEEEYGSSLEDDVVGDTSGYYQRMLVVLLQANRDPDAGIDEAQVEQDAQALFQAGELKWGTDEEKFITIFGTRSVSHLRKVFDKYMTISGFQIEETIDRETSGNLEQLLLAVVKSIRSIPAYLAETLYYAMKGAGTDDHTLIRVMVSRSEIDLFNIRKEFRKNFATSLYSMIKGDTSGDYKKALLLLCGEDD
For B1, the “coaguligand-induced anti-tumor effects after pre-treatment” value ([6]; 100 μg Annexin V, 2 hours before 40 μg anti-VCAM-1•tTF) was “completely abolished”, the tumor morphology ([6]; 100 μg alone) was “did not alter tumor morphology” and the “inhibition of factor Xa production” value [7] was 58%.
